Test results as given in patent publication US9981961B2, “Deoxycytidine kinase inhibitors” (The Regents of the University of California, priority 2013, dated 2018).

How the values were obtained:
in vitro = settings: human, microsomes
dCK in CCRF-CEM cells = dCK in CCRF-CEM cells (Homo sapiens, UniProt P27707); assay: cell-based
Method: These were performed in CCRF-CEM acute lymphoblastic leukemia cells as previously described.^8, 9
dCK Uptake Assay Performed in Cell Culture. […] For the uptake assays cells were seeded at a density of 50,000 cells/well in Millipore MultiScreen GV 96 well plates. […] After 1 h at 37° C., cells were washed four times with ice cold phosphate-buffered saline (PBS) using the Millipore Vacuum Manifold. The amount of incorporated probe was measured by scintillation counting with the PerkinElmer Microbeta.

dCK activity in liver = dCK activity in liver (Mus musculus, UniProt P43346); assay: 18F-L-FAC PET liver assay of in vivo dCK inhibition; settings: mice
Method: Evaluation of In Vivo Inhibition of dCK Activity Via a New PET PD Assay. […] Four hours later, treated mice were injected intravenously with ^18F-L-FAC; one hour after probe injection, mice were imaged by mPET/CT. The readout for the PET PD assay was the reduction in the accumulation of ^18F-L-FAC in dCK-positive tissues in dCK inhibitor versus vehicle treated mice. […] Since the reproducibility in the dCK-dependent tissue retention of ^18F-L-FAC was most consistent in the liver^27, we chose to quantify ^18F-L-FAC liver retention in order to compare the in vivo efficacy of the various dCK inhibitors.
In Vivo MicroPET/CT Imaging Studies. […] Four hours post-treatment mice were injected intravenously with 70 μCi of ^18F-L-FAC. For all mPET/CT studies, a 1 h interval was allowed between probe administration and mPET/CT scanning (Inveon, Siemens Medical Solutions USA Inc.; microCAT, Imtek Inc.). Static mPET images were acquired for 600 s. Images were analyzed using OsiriX Imaging Software Version 3.8.

[1] = IC50 (nM), Table 3, inhibition of 3H-deoxycytidine (dCyd) uptake in CEM cells, mean ± SD of n ≥ 2 unless (n = 1)
[2] = IC50, Example 4 list, assay and unit inferred, values correspond to the CEM 3H-dC uptake data of Tables 3 and 7
[3] = IC50, Example 5 list, assay and unit inferred, values correspond to the CEM data of Table 3

dCK in CCRF-CEM cells, sequence (P27707 whole entry): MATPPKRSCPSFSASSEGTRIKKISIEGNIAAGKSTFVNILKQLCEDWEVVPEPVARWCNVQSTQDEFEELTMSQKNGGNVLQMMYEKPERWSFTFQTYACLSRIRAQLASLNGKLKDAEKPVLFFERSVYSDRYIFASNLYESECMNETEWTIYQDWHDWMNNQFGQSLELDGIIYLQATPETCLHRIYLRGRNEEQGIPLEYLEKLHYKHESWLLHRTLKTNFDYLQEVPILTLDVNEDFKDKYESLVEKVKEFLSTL
dCK activity in liver, sequence (P43346 whole entry): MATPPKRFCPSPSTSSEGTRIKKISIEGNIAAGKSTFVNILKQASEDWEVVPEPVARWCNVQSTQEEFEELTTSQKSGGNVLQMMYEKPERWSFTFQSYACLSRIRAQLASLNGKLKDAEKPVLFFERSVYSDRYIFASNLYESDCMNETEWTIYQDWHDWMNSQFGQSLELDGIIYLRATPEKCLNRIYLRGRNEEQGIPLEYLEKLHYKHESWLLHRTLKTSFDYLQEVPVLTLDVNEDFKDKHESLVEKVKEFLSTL

COc1ccc(-c2nc(CSc3nc(N)cc(N)n3)c(C)s2)cc1OCCF [Compound 15a, 2-(((2-(3-(2-fluoroethoxy)-4-methoxyphenyl)-5-methylthiazol-4-yl)methyl)thio)pyrimidine-4,6-diamine]
half-life at 1 μM (in vitro): 16.3 min | microsomal CLint at 1 μM (in vitro): 142 µL/min/mg

CCCc1sc(-c2ccc(N(CCNS(C)(=O)=O)S(C)(=O)=O)c(OCCNS(C)(=O)=O)c2)nc1CSc1nc(N)cc(N)n1 [Compound S2]
IC50 (dCK in CCRF-CEM cells; [1]): 1200 nM | IC50 (dCK in CCRF-CEM cells; [2]): 1200 nM

CCCc1sc(-c2ccc(OC)c(OCCCF)c2)nc1CSc1nc(N)cc(N)n1 [Compound S3]
IC50 (dCK in CCRF-CEM cells; [1]): 2.5 nM | IC50 (dCK in CCRF-CEM cells; [2]): 2.51 nM

CCCc1sc(-c2ccc(OCCF)c(OCC)c2)nc1CSc1nc(N)cc(N)n1 [Compound S4]
IC50 (dCK in CCRF-CEM cells; [1]): 2.8 nM | IC50 (dCK in CCRF-CEM cells; [2]): 2.86 nM

CCCc1sc(-c2ccc(F)c(OCCCF)c2)nc1CSc1nc(N)cc(N)n1 [Compound S5]
IC50 (dCK in CCRF-CEM cells; [1]): 31.7 nM | IC50 (dCK in CCRF-CEM cells; [2]): 31.7 nM

CCCc1sc(-c2ccc(F)c(OCCF)c2)nc1CSc1nc(N)cc(N)n1 [Compound S6]
IC50 (dCK in CCRF-CEM cells; [1]): 23.3 nM | IC50 (dCK in CCRF-CEM cells; [2]): 23.4 nM

CCCc1sc(-c2ccnc(OCCF)c2)nc1CSc1nc(N)cc(N)n1 [Compound S7]
IC50 (dCK in CCRF-CEM cells; [1]): 6.8 nM | IC50 (dCK in CCRF-CEM cells; [2]): 6.84 nM

[2H]C([2H])(Sc1nc(N)cc(N)n1)c1nc(-c2ccnc(OCCF)c2)sc1CCC [Compound S8]
IC50 (dCK in CCRF-CEM cells; [1]): 30 nM | IC50 (dCK in CCRF-CEM cells; [2]): 30 nM

CCCc1sc(-c2ccc(OC)c(OCCOCCOCCSc3nc(N)cc(N)n3)c2)nc1CSc1nc(N)cc(N)n1 [Compound S10]
IC50 (dCK in CCRF-CEM cells; [1]): 4.7 nM | IC50 (dCK in CCRF-CEM cells; [2]): 4.75 nM

CCCc1sc(-c2ccc(OC)c(OCCOCCOCCO)c2)nc1CSc1nc(N)cc(N)n1 [Compound S11]
IC50 (dCK in CCRF-CEM cells; [1]): 1.06 nM | IC50 (dCK in CCRF-CEM cells; [2]): 1.06 nM

COc1ccc(-c2cc(CSc3nc(N)cc(N)n3)c(C)o2)cc1OCCF [Compound S12]
IC50 (dCK in CCRF-CEM cells; [1]): 13500 nM | IC50 (dCK in CCRF-CEM cells; [2]): 13800 nM

COc1cc(-c2cc(CSc3nc(N)cc(N)n3)c(C)o2)ccc1OCCF [Compound S14]
IC50 (dCK in CCRF-CEM cells; [1]): 276 nM | IC50 (dCK in CCRF-CEM cells; [2]): 276 nM

CCCc1sc(-c2ccc(OC)c(OCCF)c2)nc1CCc1nc(N)cc(N)n1 [Compound S15]
IC50 (dCK in CCRF-CEM cells; [1]): 664 nM | IC50 (dCK in CCRF-CEM cells; [2]): 664 nM

CCCc1sc(-c2ccc(OC)c(OCCOCCOCCF)c2)nc1CSc1nc(N)cc(N)n1 [Compound S16]
IC50 (dCK in CCRF-CEM cells; [1]): 4.22 nM | IC50 (dCK in CCRF-CEM cells; [2]): 4.21 nM

CCCc1sc(-c2cccc(OCCOCCOCCF)c2)nc1CSc1nc(N)cc(N)n1 [Compound S17]
IC50 (dCK in CCRF-CEM cells; [1]): 69.1 nM | IC50 (dCK in CCRF-CEM cells; [2]): 69.1 nM

COc1cc(-c2cc(CSc3nc(N)cc(N)n3)c(C)s2)ccc1OCCF [Compound S18]
IC50 (dCK in CCRF-CEM cells; [1]): 262 nM | IC50 (dCK in CCRF-CEM cells; [2]): 263 nM

CCCc1sc(-c2cc(F)cc(OCCOCCOCCF)c2)nc1CSc1nc(N)cc(N)n1 [Compound S19]
IC50 (dCK in CCRF-CEM cells; [1]): 33.7 nM | IC50 (dCK in CCRF-CEM cells; [2]): 33.7 nM

CCCc1sc(-c2ccc(OC)c(OCCOCCOCCOC)c2)nc1CSc1nc(N)cc(N)n1 [Compound S20, 2-(((2-(4-methoxy-3-(2-(2-(2-methoxyethoxy)ethoxy)ethoxy)phenyl)-5-propylthiazol-4-yl)methyl)thio)pyrimidine-4,6-diamine]
IC50 (dCK in CCRF-CEM cells; [1]): 3.31 nM | IC50 (dCK in CCRF-CEM cells; [2]): 3.31 nM

CCCc1sc(-c2ccc(OCCOCCOCCOC)c(OCC)c2)nc1CSc1nc(N)cc(N)n1 [Compound S21]
IC50 (dCK in CCRF-CEM cells; [1]): 2.37 nM | IC50 (dCK in CCRF-CEM cells; [2]): 2.37 nM

CCCc1sc(-c2ccc(OC)c(OCCOCCOCCOC)c2)nc1C(C)Sc1nc(N)cc(N)n1 (stereo not drawn) [Compound S22]
IC50 (dCK in CCRF-CEM cells; [1]): 6 nM | IC50 (dCK in CCRF-CEM cells; [3]): 6.01 nM

COCCOCCOCCOc1cc(-c2nc(C(C)Sc3nc(N)cc(N)n3)c(C)s2)ccc1OC (stereo not drawn) [Compound S23]
IC50 (dCK in CCRF-CEM cells; [1]): 8.03 nM | IC50 (dCK in CCRF-CEM cells; [3]): 8.03 nM

COCCOCCOCCOc1ccc(-c2nc(C(C)Sc3nc(N)cc(N)n3)c(C)s2)cc1OC (stereo not drawn) [Compound S24]
IC50 (dCK in CCRF-CEM cells; [1]): 6.1 nM | IC50 (dCK in CCRF-CEM cells; [3]): 6.12 nM

COCCOCCOCCOc1cc(-c2nc(CSc3nc(N)cc(N)n3)c(C3CC3)s2)ccc1OC [Compound S25]
IC50 (dCK in CCRF-CEM cells; [1]): 23 nM | IC50 (dCK in CCRF-CEM cells; [2]): 5.28 nM

COCCOCCOCCOc1cc(-c2nc(CSc3nc(N)cc(N)n3)c(C)s2)ccc1OC [Compound S26]
IC50 (dCK in CCRF-CEM cells; [1]): 9.1 nM | IC50 (dCK in CCRF-CEM cells; [2]): 9.3 nM

COCCOCCOCCOc1cc(-c2nc(C(C)Sc3nc(N)cc(N)n3)c(C3CC3)s2)ccc1OC (stereo not drawn) [Compound S27]
IC50 (dCK in CCRF-CEM cells; [1]): 3.7 nM | IC50 (dCK in CCRF-CEM cells; [3]): 2.47 nM | outcome in the PET L-FAC liver assay (dCK activity in liver): failed

COCCOCCOCCOc1cc(-c2nc(C(C)Sc3nc(N)cc(N)n3)c(-c3ccccc3)s2)ccc1OC (stereo not drawn) [Compound S28]
IC50 (dCK in CCRF-CEM cells; [1]): 98.9 nM

Cc1sc(-c2cc(F)cc(OCCNS(C)(=O)=O)c2)nc1C(C)Sc1nc(N)cc(N)n1 (stereo not drawn) [Compound S31]
IC50 (dCK in CCRF-CEM cells; [1]): 9.07 nM

CCCc1sc(-c2ccc(OC)c(OCCO)c2)nc1CSc1cc(N)nc(N)n1 [DI-42]
IC50 (dCK in CCRF-CEM cells; [2]): 330 nM

CCCc1sc(-c2ccnc(OCCNS(C)(=O)=O)c2)nc1CSc1nc(N)cc(N)n1 [DI-46]
IC50 (dCK in CCRF-CEM cells; [2]): 1180 nM

COc1cc(-c2cc(CSc3nc(N)cc(N)n3)sc2C)ccc1OCCF [DI-63]
IC50 (dCK in CCRF-CEM cells; [2]): 1580 nM

COCCOCCOCCOc1cc(-c2nc(CSc3nc(N)cc(N)n3)c(C(Sc3nc(N)cc(N)n3)c3ccccc3)s2)ccc1OC (stereo not drawn) [DI-78]
IC50 (dCK in CCRF-CEM cells; [2]): 1660 nM
